Experiment [1] deals with HCT116-C9-C4. The experiment is described as follows: Cell growth inhibition assay (MTT, 72 h) on E7070-resistant HCT116-C9-C4. The conditions noted are these: Homo sapiens. The format is cell-based. As for the experimental part:
(§1) An E7070-resistant cell line was used to assess the antiproliferative activities of E7820, LY186641, LY295501, LY-ASAP and CQS. HCT116-C9 was a substrain separated from human colon cancer-derived HCT116 (American Type Culture Collection, Manassas, Va., U.S.A.). This HCT116-C9 was cultured in the presence of E7070 while increasing the E7070 concentration by degrees, thereby obtaining E7070-resistant substrains HCT116-C9-C1 and HCT116-C9-C4 (Molecular Cancer Therapeutics, 2002, 1, 275-286).
(§2) Three cell lines, i.e., HCT116-C9, HCT116-C9-C1 and HCT116-C9-C4, were each seeded at 3000 cells/well onto a 96-well microplate (flat bottom) (50 μl/well). Twenty-four hours later, they were added with a 3-fold dilution series of each compound (50 μl/well). Seventy-two hours later, the antiproliferative activities were assessed by MTT method (Mossmann T., J. Immunol. Methods, 1983, 65, 55-63). The 50% growth inhibitory concentrations to the cancer cells were obtained by a least square method.
(§3) In exactly the same manner as in Example 6, an E7070-resistant cell line was used to assess the antiproliferative activities of LY573636 as well as those of E7070.

Experiment [2] concerns HCT116-C9-C1. As to the kind of experiment: Cell growth inhibition assay (MTT, 72 h) on E7070-resistant HCT116-C9-C1. The format is cell-based. As to conditions: Homo sapiens. As to the method: as §1, §2, §3
The subject of experiment [3] is HCT116-C9. The experiment is described as follows: Cell growth inhibition assay (MTT, 72 h) on HCT116-C9. The format is cell-based. The conditions noted are these: Homo sapiens. As for the experimental part:
as §1, §2, §3

The subject of experiment [4] is human colon cancer cell line (Colo320DM). As to the kind of experiment: Subcutaneous transplant model of human colon cancer cell line Colo320DM, E7070 and Bevacizumab (Example 8). The format is in vivo. As to conditions: Colo320DM s.c. in nude mouse, E7070 40 mg/kg i.v. Days 1 to 5, Bevacizumab 25 mg/kg i.v. Days 1, 5, 8 and 12; for Relative Tumor Volume (RTV) Average ± standard deviation: Day 23. As to the method: Human colon cancer cell line Colo320DM (purchased from ATCC) was cultured in RPMI1640 (containing 10% FBS) in a 5% carbon dioxide incubator to about 80% confluence, and the cells were collected with trypsin-EDTA. Using Hanks balanced solution, 5×10^7 cells/mL suspension was prepared, and 0.1 mL each of the resulting cell suspension was subcutaneously transplanted to a nude mouse at the side of its body.
Following transplantation, E7070 (40 mg/kg/day) and Bevacizumab (25 mg/kg/day) were administered alone or in combination when the average tumor volume became 259 mm^3.
E7070 alone was intravenously administered once a day for 5 days (on Days 1 to 5). On the other hand, Bevacizumab alone was intravenously administered twice a week for 2 weeks (on Days 1, 5, 8 and 12).
For the combinational use group, E7070 was intravenously administered on Days 1 to 5 while Bevacizumab was intravenously administered on Days 1, 5, 8 and 12.
The major and minor axes of tumors were measured twice a week from the initiation of administration with Digimatic caliper (Mitsutoyo), and tumor volumes were calculated according to the following formula.
(§4) Tumor Volume TV=Major axis of tumor (mm)×(Minor axis of tumor)^2 (mm^2)/2
The following two values were used for judging an anti-tumor effect.
Tx4: time (days) required for the tumor to grow to four times the initial tumor volume
RTV: Relative tumor volume (RTV)* on Day 23
*RTV=Tumor volume on Day 23/Initial tumor volume on Day 1

Experiment [5] has the same test system. The experiment is described as follows: Subcutaneous transplant model of human colon cancer cell line Colo320DM, E7820 and Bevacizumab (Example 2). As to conditions: Colo320DM s.c. in nude mouse; E7820 200 mg/kg twice a day orally 3 weeks; Bevacizumab 25 mg/kg twice a week i.v. 3 weeks. It is filed as in vivo. As for the experimental part: Human colon cancer cell line Colo320DM (purchased from Dainippon Pharmaceutical) was cultured in RPMI1640 (containing 10% FBS) in a 5% carbon dioxide incubator at 37° C. to about 80% confluence, and the cells were collected with trypsin-EDTA. Using a phosphate buffer containing 50% matrigel, 5×10^7 cells/mL suspension was prepared, and 0.1 mL each of the resulting cell suspension was subcutaneously transplanted to a nude mouse at the side of its body. Seven days after the transplantation, administration of E7820 (200 mg/kg, twice a day, for 3 weeks, orally administered) and administration of Bevacizumab (25 mg/kg, twice a week, for 3 weeks, intravenously administered) were initiated. The major and minor axes of tumors were measured with Digimatic caliper (Mitsutoyo), and tumor volumes and relative tumor volumes were calculated according to the following formulae.
as §4
(§5) Relative Tumor Volume RTV=Tumor volume on measurement day/Tumor volume on the first administration day

The test system of experiment [6] is human renal cancer cell line (786-O). As to the kind of experiment: Subcutaneous transplant model of human renal cancer cell line 786-O, E7820 and Bevacizumab (Example 9). The format is in vivo. As to conditions: 786-O s.c. in nude mouse; E7820 200 mg/kg twice a day orally 2 weeks; Bevacizumab 25 mg/kg twice a week i.v. 2 weeks. As for the experimental part: Human renal cancer cell line 786-0 (obtained from ATCC) was cultured in RPMI1640 (containing 10% FBS) in a 5% carbon dioxide incubator at 37° C. to about 80% confluence, and the cells were collected with trypsin-EDTA. Using a phosphate buffer containing 50% matrigel, 1×10^8 cells/mL suspension was prepared, and 0.1 mL each of the resulting cell suspension was subcutaneously transplanted to a nude mouse at the side of its body.
Seven days after the transplantation, E7820 and Bevacizumab were administered alone or in combination. E7820 was orally administered at 200 mg/kg twice a day for 2 weeks while Bevacizumab was intravenously administered at 25 mg/kg twice a week for 2 weeks.
The major and minor axes of tumors were measured with Digimatic caliper (Mitsutoyo), and tumor volumes and relative tumor volumes were calculated according to the following formulae.
as §4, §5

The mark [7] stands for this setting: Example 6, read-out: antiproliferative activity, IC50.
[8] abbreviates: Example 7, read-out: antiproliferative activity, IC50.

Where two headings read alike, the source gives them in different places.

In the case of `Nc1ccc(S(=O)(=O)Nc2cnc3c(Cl)cccc3n2)cc1` [CQS, 2-sulfanylamide-5-chloroquinoxaline], the values for the IC50 in experiment [1] (setting [7]), in experiment [2] (setting [7]) and in experiment [3] (setting [7]) were 517 µM, 634 µM and 1730 nM, respectively.

`NS(=O)(=O)c1ccc(S(=O)(=O)Nc2cccc3c(Cl)c[nH]c23)cc1` [E7070, N-(3-chloro-1H-indole-7-yl)-4-sulfamoylbenzenesulfonamide]: the “Tx4 Average ± standard deviation (time required for the tumor to grow to four times the initial tumor volume)” value in experiment [4] amounted to 27.0 ± 3.4 days. Also, the “Relative Tumor Volume (RTV) Average ± standard deviation” value in experiment [4] is recorded as 2.70 ± 0.97. The IC50 in experiment [1] (setting [7]) is 26.9 µM; in experiment [1] (setting [8]) it was 28 µM; in experiment [2] (setting [7]), 31.9 µM; in experiment [2] (setting [8]) it was 32.7 µM; in experiment [3] (setting [7]) it was 127 nM.

For `Cc1ccc(NS(=O)(=O)c2cccc(C#N)c2)c2[nH]cc(C#N)c12` [E7820, N-(3-cyano-4-methyl-1H-indole-7-yl)-3-cyanobenzenesulfonamide], the IC50 was found to be 52.8 µM in experiment [1] (setting [7]), 51.2 µM in experiment [2] (setting [7]) and 80 nM in experiment [3] (setting [7]). The “Relative tumor volume on Day 22 Average ± standard deviation” value in experiment [5] is reported as 6.1 ± 1.8; in experiment [6], 0.6 ± 0.1.

Take `O=C(Nc1ccc(Cl)cc1)NS(=O)(=O)c1ccc2c(c1)CCC2` [LY186641, N-[[(4-chlorophenyl)amino]carbonyl]-2,3-dihydro-1H-indene-5-sulfonamide]: the IC50 in experiment [1] (setting [7]) stood at 138 µM; in experiment [2] (setting [7]), 134 µM; in experiment [3] (setting [7]), 33600 nM.

On to `O=C(Nc1ccc(Cl)c(Cl)c1)NS(=O)(=O)c1ccc2c(c1)CCO2` [LY295501, N-[[(3,4-dichlorophenyl)amino]carbonyl]-2,3-dihydrobenzofuran-5-sulfonamide], for which the IC50 in experiment [1] (setting [7]) turned out to be 110 µM; in experiment [2] (setting [7]) it was 111 µM; in experiment [3] (setting [7]), 10900 nM.

Take `O=C(NS(=O)(=O)c1ccc(Br)s1)c1ccc(Cl)cc1Cl` [LY573636, N-(2,4-dichlorobenzoyl)-5-bromothiophene-2-sulfonamide]: the IC50 turned out to be 240 µM in experiment [1] (setting [8]), 264 µM in experiment [2] (setting [8]) and 5110 nM in experiment [3] (setting [8]).

As to `O=C(NS(=O)(=O)c1ccc(Cl)cc1)c1ccc(Cl)cc1Cl` [LY-ASAP, N-(2,4-dichlorobenzoyl)-4-chlorophenylsulfonamide], the IC50 in experiment [1] (setting [7]) is 90.3 µM; in experiment [2] (setting [7]) it was 113 µM; in experiment [3] (setting [7]), 1630 nM.

With “Bevacizumab: human anti-VEGF (Vascular Endothelial Growth Factor) monoclonal antibody, obtained by purchasing Avastin from Genentech”, the “Tx4 Average ± standard deviation (time required for the tumor to grow to four times the initial tumor volume)” value in experiment [4] is 26.3 ± 2.8 days. In addition, the “Relative Tumor Volume (RTV) Average ± standard deviation” value in experiment [4] is recorded as 2.84 ± 0.68. Besides, the “Relative tumor volume on Day 22 Average ± standard deviation” value in experiment [5] amounted to 5.1 ± 0.8; in experiment [6], 1.8 ± 0.2.
